In US8211445B2, “PSM peptides as vaccine targets against methicillin-resistant Staphylococcus” (The United States of America, as represented by the …, priority 2007, dated 2012):

Tests used:
[1] = tested on: human neutrophils; assay: Lysis of human neutrophils (release of lactate dehydrogenase); format: cell-based; settings: synthetic PSM peptides at 10 μg/ml, LDH release (FIG. 4A)
Procedure: (§1) Lysis of PMNs by synthetic PSMs or clarified S. aureus culture media was determined essentially as described (Voyich et al., J Infect Dis 194, 1761-70, 2006; Voyich et al., J Immunol 175, 3907-19, 2005). Synthetic PSMs (1 or 10 μg/ml) were added to wells of a 96-well tissue culture plate containing 10^6 PMNs and plates were incubated at 37° C. for up to 3 hours. At the desired times, PMN lysis was determined by release of lactate dehydrogenase (LDH; Cytotoxicity Detection Kit, Roche Applied Sciences). Alternatively, wild-type and isogenic mutant S. aureus strains were cultured for 18 hours at 37° C. in 50 ml TSB with shaking using a 100 ml flask. Bacteria were removed by centrifugation and culture media were sterilized by filtration and stored at −80° C. in aliquots until used. Culture medium was diluted 1:10 in RPMI/H, mixed with human PMNs (10^6) and tested for its ability to cause PMN lysis.
as §1, with “above in Example 2.” for “(Voyich et al., J Infect Dis 194, 1761-70, 2006; Voyich et al., J Immunol 175, 3907-19, 2005).”
Human neutrophil assays: Human neutrophil isolation, chemotaxis, calcium ion flux, priming, lysis assays, and measurement of IL-8 production were performed as described in Example 2.

[2] = tested on: human neutrophils; assay: Calcium ion flux in neutrophils (Fluo-3-AM); format: cell-based; settings: PSM-mec vs PSMα3; range similar to other α-type PSMs, in general higher than β-type PSMs (FIG. 21B)
Procedure: Neutrophils were subjected to a brief hypotonic shock with pyrogen-free water (Sigma), washed, and suspended at 5×10^6 cells/ml in HBSS containing 0.05% human serum albumin (HSA; CLB). Chemotaxis of neutrophils was determined by using fluorescently-labeled neutrophils that migrated through a membrane fitted into an insert of a 24-well microtiter plate transwell system (Costar) containing a prewetted 3-μm-pore-size polycarbonate filter as described (de Haas et al., J Exp Med 199, 687-95, 2004). For measurement of calcium ion fluxes, 5×10^6 neutrophils/ml were loaded with 2 μM Fluo-3-AM (Molecular Probes) in RPMI containing 0.05% HSA (RPMI-HSA) for 20 minutes at room temperature under agitation, washed twice with buffer, and resuspended in RPMI-HSA at 10^6 cells/ml. Calcium fluxes were analyzed with a FACScalibur (Becton Dickinson).
Neutrophils were subjected to a brief hypotonic shock with pyrogen-free water (Sigma), washed, and suspended at 5×10^6 cells/ml in HBSS containing 0.05% human serum albumin (HAS; CLB). Chemotaxis of neutrophils was determined by using fluorescently-labeled neutrophils that migrated through a membrane fitted into an insert of a 24-well microtiter plate transwell system (Costar) containing a prewetted 3-μm-pore-size polycarbonate filter. […] Calcium fluxes were analyzed with a FACScalibur (Becton Dickinson). […]

[3] = Immunization of mice with synthetic PSM peptides, PSM-specific antibodies by ELISA; format: in vivo, mice (BALB/c); settings: 50 μg s.c. with CFA, booster with IFA
Procedure: In order to determine the immunogenicity of synthetic PSM peptides, mice (BALB/c, female, 6-8 weeks) were injected subcutaneously with 50 μg (100 μL) of each PSM peptide in sterile PBS emulsified with complete Freund's adjuvant (CFA) for primary immunization. A booster injection containing incomplete Freund's adjuvant (IFA) instead of CFA was given to the animals 14 days after the primary immunization. The control group of animals received injections of sterile PBS and adjuvants only. Three blood withdrawals were performed on each mouse. The first two blood samples were collected via retro-orbital route immediately before primary injection and before booster injection, respectively. All animals were sacrificed 21 days after booster injection for the terminal blood samples.
PSM-specific antibodies in mouse serum were determined by ELISA assays. Microtiter plates (Nunc 96-well flat-bottom MaxiSorp plates) were coated with 20 μg/ml of each synthetic PSM peptides in PBS plus 0.05% NaN3, and incubated overnight at 4° C. The plates were washed with PBS containing 0.05% Tween-20, and blocked for 1 hour at room temperature with 1% BSA (Sigma) and 0.05% NaN3 in PBS. Serum samples were diluted in assay diluent (Tris-buffered saline containing 0.1% BSA and 0.05% Tween-20, pH 7.2), and added to the washed wells at 100 μl/well for an incubation of 2 hours at room temperature. Plates were washed again and HRP-labeled goat anti-mouse IgG (R&D Systems) and goat anti-mouse IgM (Jackson ImmunoResearch Laboratory) were diluted in assay diluent and added to the plates at 100 μl/well for an incubation of 1 hour at room temperature in order to detect PSM specific mouse IgG and IgM, respectively. Plates were washed again and a substrate solution containing equal volume of Tetramethylbenzidine and H2O2 was added to the plates at 100 μl/well for color development. The reaction was terminated by adding 50 μl of 1 M H2SO4 to each well, and optical density (O.D.) was measured at 450 nm using an ELISA plate reader.

Substance: fMEFVAKLFKFFKDLLGKFLGNN [PSMα3]
- lysis of human neutrophils in vitro [1]: significant lysis
- calcium flux [2]: most potent
- specific antibody production in vivo ([3]; N-formylated synthetic PSM peptides, BALB/c mice (FIG. 11)): most robust antibody production
- specific antibody production in vivo ([3]; non N-formylated synthetic PSM peptides, BALB/c mice (FIG. 12)): strongest response
